Reference: the supplement of paper PMC6045584
± gives the standard deviation of the averaged measurements.

compound: COc1cc2ncnc(Nc3ccc(F)c(Cl)c3)c2cc1OCCCN1CCOCC1 [GEFITINIB]; assay: surviving fraction relative to DMSO-only wells; higher = less growth inhibition; conditions: 0.5 nM; exposure time: 5 days
Outline: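 Tumour cell lines in log phase were plated in 384-well plates at 250–500 cells per well, then, after 24 hours, exposed continuously for five days to inhibitors at 0.5, 1, 5, 10, 50, 100, 500 and 1000 nM. Viability came from CellTiter-Glo luminescence, and surviving fraction is that signal normalised to the median of DMSO-only wells. Plates were read after 10 minutes at room temperature, and each line, screened three times, was kept only when replicate Pearson r was >0.7 and median Z' was >0.3.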

Test System | surviving fraction
JURKAT HAEMATOPOIETIC AND LYMPHOID TISSUE | 1.07 ± 0.016
SJSA1 BONE | 1.15 ± 0.059
YAMATO SYNOVIAL | 1.24 ± 0.098
C33A CERVIX | 0.925 ± 0.067
PCI30 HEADNECK | 0.996 ± 0.063
SCC003 HEADNECK | 1.02 ± 0.057
HUO3N1 BONE | 0.977 ± 0.032
T47D BREAST | 1.08 ± 0.027
NOS1 BONE | 1.1 ± 0.073
HELA CERVIX | 1.07 ± 0.044
NY BONE | 0.999 ± 0.032
CASKI CERVIX | 0.956 ± 0.025
BT549 BREAST | 1.1 ± 0.18
COLO320DM LARGE INTESTINE | 1.17 ± 0.07
MDAMB361 BREAST | 0.861 ± 0.02
HOSMNG BONE | 1.01 ± 0.035
A549 LUNG | 1.05 ± 0.043
CAL51 BREAST | 1.01 ± 0.089
OSHN BONE | 1.1 ± 0.012
MCF7 BREAST | 0.935 ± 0.02
HT1080 SOFT TISSUE | 1.05 ± 0.016

Test System | surviving fraction
MDAMB157 BREAST | 1.04 ± 0.033
143B BONE | 1.07 ± 0.023
SIHA CERVIX | 1.01 ± 0.017
MDAMB134 BREAST | 0.881 ± 0.014
SG32 HEADNECK | 1.33 ± 0.14
NCIH441 LUNG | 1.17 ± 0.048
CCK81 LARGE INTESTINE | 0.85 ± 0.091
SG31 HEADNECK | 1.14 ± 0.13
OS25HAL BONE | 1.04 ± 0.052
HCC1954 BREAST | 1.25 ± 0.17
VP229 BREAST | 1.14 ± 0.062
22RV1 PROSTATE | 1 ± 0.023
MDAMB231 BREAST | 0.989 ± 0.026
RDES SOFT TISSUE | 1.07 ± 0.13
LM7 BONE | 0.988 ± 0.039
HMT3552 BREAST | 0.987 ± 0.065
SNU475 LIVER | 1.05 ± 0.096
HCC38 BREAST | 1.05 ± 0.086
HU09 BONE | 0.997 ± 0.069
ASKA SYNOVIAL | 1.13 ± 0.052

same assay, conditions: 1 nM; exposure time: 5 days

Test System | surviving fraction
JURKAT HAEMATOPOIETIC AND LYMPHOID TISSUE | 1.09 ± 0.041
SJSA1 BONE | 1.59 ± 0.071
YAMATO SYNOVIAL | 1.21 ± 0.05
C33A CERVIX | 1.01 ± 0.063
PCI30 HEADNECK | 1.01 ± 0.051
SCC003 HEADNECK | 1.01 ± 0.056
HUO3N1 BONE | 0.972 ± 0.053
T47D BREAST | 1.05 ± 0.064
NOS1 BONE | 1.11 ± 0.032
HELA CERVIX | 1.05 ± 0.019
NY BONE | 1 ± 0.035
CASKI CERVIX | 0.929 ± 0.096
BT549 BREAST | 1.03 ± 0.073
COLO320DM LARGE INTESTINE | 1.21 ± 0.051
MDAMB361 BREAST | 0.851 ± 0.071
HOSMNG BONE | 0.993 ± 0.0089
A549 LUNG | 1.05 ± 0.024
CAL51 BREAST | 0.995 ± 0.07
OSHN BONE | 1.11 ± 0.017
MCF7 BREAST | 0.921 ± 0.032
HT1080 SOFT TISSUE | 1.05 ± 0.035

Test System | surviving fraction
MDAMB157 BREAST | 0.968 ± 0.067
143B BONE | 1.08 ± 0.075
SIHA CERVIX | 1.01 ± 0.076
MDAMB134 BREAST | 0.974 ± 0.067
SG32 HEADNECK | 1.37 ± 0.097
NCIH441 LUNG | 1.15 ± 0.064
CCK81 LARGE INTESTINE | 0.849 ± 0.081
SG31 HEADNECK | 1.09 ± 0.18
OS25HAL BONE | 1.04 ± 0.041
HCC1954 BREAST | 1.25 ± 0.25
VP229 BREAST | 1.08 ± 0.09
22RV1 PROSTATE | 0.984 ± 0.18
MDAMB231 BREAST | 0.987 ± 0.026
RDES SOFT TISSUE | 1.06 ± 0.15
LM7 BONE | 1.01 ± 0.034
HMT3552 BREAST | 1 ± 0.052
SNU475 LIVER | 1.05 ± 0.05
HCC38 BREAST | 1.33 ± 0.089
HU09 BONE | 0.921 ± 0.055
ASKA SYNOVIAL | 1.11 ± 0.06

same assay, conditions: 5 nM; exposure time: 5 days

Test System | surviving fraction
JURKAT HAEMATOPOIETIC AND LYMPHOID TISSUE | 1.062 ± 0.0078
SJSA1 BONE | 1.62 ± 0.018
YAMATO SYNOVIAL | 1.25 ± 0.043
C33A CERVIX | 1.01 ± 0.018
PCI30 HEADNECK | 1.071 ± 0.0044
SCC003 HEADNECK | 1.1 ± 0.027
HUO3N1 BONE | 1.05 ± 0.022
T47D BREAST | 1.07 ± 0.061
NOS1 BONE | 1.25 ± 0.23
HELA CERVIX | 1.106 ± 0.0031
NY BONE | 1.09 ± 0.036
CASKI CERVIX | 0.851 ± 0.032
BT549 BREAST | 1.04 ± 0.13
COLO320DM LARGE INTESTINE | 1.13 ± 0.081
MDAMB361 BREAST | 0.908 ± 0.025
HOSMNG BONE | 0.971 ± 0.092
A549 LUNG | 1.07 ± 0.04
CAL51 BREAST | 1.01 ± 0.015
OSHN BONE | 1.12 ± 0.013
MCF7 BREAST | 0.924 ± 0.042
HT1080 SOFT TISSUE | 1.05 ± 0.069

Test System | surviving fraction
MDAMB157 BREAST | 0.92 ± 0.057
143B BONE | 1.11 ± 0.084
SIHA CERVIX | 1.08 ± 0.053
MDAMB134 BREAST | 0.775 ± 0.21
SG32 HEADNECK | 1.39 ± 0.32
NCIH441 LUNG | 1.07 ± 0.089
CCK81 LARGE INTESTINE | 0.77 ± 0.12
SG31 HEADNECK | 1.1 ± 0.28
OS25HAL BONE | 1.06 ± 0.035
HCC1954 BREAST | 1.01 ± 0.029
VP229 BREAST | 1.07 ± 0.033
22RV1 PROSTATE | 0.979 ± 0.085
MDAMB231 BREAST | 1.02 ± 0.02
RDES SOFT TISSUE | 1.05 ± 0.058
LM7 BONE | 1.1 ± 0.07
HMT3552 BREAST | 0.97 ± 0.038
SNU475 LIVER | 1.01 ± 0.016
HCC38 BREAST | 1.25 ± 0.17
HU09 BONE | 0.972 ± 0.023
ASKA SYNOVIAL | 1.05 ± 0.085

same assay, conditions: 10 nM; exposure time: 5 days

Test System | surviving fraction
JURKAT HAEMATOPOIETIC AND LYMPHOID TISSUE | 1.07 ± 0.021
SJSA1 BONE | 0.602 ± 0.04
YAMATO SYNOVIAL | 1.36 ± 0.15
C33A CERVIX | 0.969 ± 0.049
PCI30 HEADNECK | 1.12 ± 0.017
SCC003 HEADNECK | 0.995 ± 0.11
HUO3N1 BONE | 1.04 ± 0.018
T47D BREAST | 1.03 ± 0.029
NOS1 BONE | 1.22 ± 0.29
HELA CERVIX | 1.06 ± 0.033
NY BONE | 1.06 ± 0.031
CASKI CERVIX | 0.815 ± 0.042
BT549 BREAST | 0.946 ± 0.094
COLO320DM LARGE INTESTINE | 1.1 ± 0.026
MDAMB361 BREAST | 1 ± 0.042
HOSMNG BONE | 1.03 ± 0.073
A549 LUNG | 1.02 ± 0.013
CAL51 BREAST | 1 ± 0.036
OSHN BONE | 1.13 ± 0.026
MCF7 BREAST | 0.935 ± 0.023
HT1080 SOFT TISSUE | 1.11 ± 0.036

Test System | surviving fraction
MDAMB157 BREAST | 1.01 ± 0.059
143B BONE | 1.1 ± 0.033
SIHA CERVIX | 1.07 ± 0.091
MDAMB134 BREAST | 0.873 ± 0.0099
SG32 HEADNECK | 1.19 ± 0.24
NCIH441 LUNG | 1.114 ± 0.0055
CCK81 LARGE INTESTINE | 0.72 ± 0.06
SG31 HEADNECK | 1.11 ± 0.24
OS25HAL BONE | 1.09 ± 0.066
HCC1954 BREAST | 1.2 ± 0.13
VP229 BREAST | 0.974 ± 0.098
22RV1 PROSTATE | 1 ± 0.058
MDAMB231 BREAST | 1.03 ± 0.024
RDES SOFT TISSUE | 1.17 ± 0.079
LM7 BONE | 1.1 ± 0.036
HMT3552 BREAST | 0.952 ± 0.018
SNU475 LIVER | 1.03 ± 0.05
HCC38 BREAST | 1.24 ± 0.1
HU09 BONE | 1.02 ± 0.079
ASKA SYNOVIAL | 1.16 ± 0.051
